According to patent US20240092758A1, “IMIDAZOLO INDAZOLE COMPOUNDS AS JAK INHIBITORS” (Theravance Biopharma R&D IP, LLC, priority 2021, published 2024):

Columns and labels:
[1] = biological target: JAK1 (Homo sapiens (Human), UniProt P23458); test: Biochemical JAK kinase assay (LanthaScreen), JAK1; settings: for Ki: read-out: JAK1 pKi (converted)
Summary of the method: (§1)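 LanthaScreen format: phospho-STAT1 (pTyr701) detected with 2 nM Tb antibody after 10 mM EDTA quench. Kinase step used Km-level ATP and 200 nM STAT1 peptide, 1 h at ambient after 1 h pre-incubation. Inhibition fitted to IC50, reported as pKi.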

[2] = biological target: JAK2 (Homo sapiens (Human), UniProt O60674); test: Biochemical JAK kinase assay (LanthaScreen), JAK2; settings: for Ki: read-out: JAK2 pKi (converted)
Chain of JAK2 (O60674 whole entry): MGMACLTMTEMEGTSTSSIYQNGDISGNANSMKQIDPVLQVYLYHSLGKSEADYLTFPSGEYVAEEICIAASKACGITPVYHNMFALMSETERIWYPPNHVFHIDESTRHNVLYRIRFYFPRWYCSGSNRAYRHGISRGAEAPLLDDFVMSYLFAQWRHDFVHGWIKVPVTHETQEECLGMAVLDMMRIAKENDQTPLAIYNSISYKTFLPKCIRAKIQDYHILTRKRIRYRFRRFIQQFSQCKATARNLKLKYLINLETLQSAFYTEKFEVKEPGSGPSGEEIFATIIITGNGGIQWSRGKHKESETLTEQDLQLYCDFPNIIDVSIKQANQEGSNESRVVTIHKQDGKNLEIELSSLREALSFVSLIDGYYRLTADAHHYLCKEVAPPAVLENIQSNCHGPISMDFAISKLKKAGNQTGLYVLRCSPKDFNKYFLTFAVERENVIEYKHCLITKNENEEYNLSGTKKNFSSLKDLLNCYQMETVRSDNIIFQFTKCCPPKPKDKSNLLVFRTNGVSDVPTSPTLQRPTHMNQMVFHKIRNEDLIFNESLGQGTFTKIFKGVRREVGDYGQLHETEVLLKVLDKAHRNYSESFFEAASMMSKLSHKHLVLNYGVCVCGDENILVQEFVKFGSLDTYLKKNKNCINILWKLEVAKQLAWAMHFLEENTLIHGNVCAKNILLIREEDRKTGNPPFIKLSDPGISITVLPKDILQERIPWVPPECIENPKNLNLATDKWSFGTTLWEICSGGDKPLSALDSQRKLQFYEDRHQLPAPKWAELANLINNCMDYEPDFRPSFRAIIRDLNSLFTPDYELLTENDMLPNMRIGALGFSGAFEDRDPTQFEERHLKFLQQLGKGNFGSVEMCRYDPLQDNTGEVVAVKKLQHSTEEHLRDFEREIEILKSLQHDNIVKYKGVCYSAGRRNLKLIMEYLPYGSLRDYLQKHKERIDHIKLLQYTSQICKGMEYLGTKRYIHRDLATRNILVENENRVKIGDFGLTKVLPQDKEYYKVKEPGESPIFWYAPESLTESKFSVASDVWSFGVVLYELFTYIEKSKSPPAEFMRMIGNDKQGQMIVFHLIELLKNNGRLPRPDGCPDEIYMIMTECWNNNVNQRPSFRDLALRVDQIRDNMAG
Summary of the method: as §1

[3] = biological target: JAK3 (Homo sapiens (Human), UniProt P52333); test: Biochemical JAK kinase assay (LanthaScreen), JAK3; settings: read-out: JAK3 pKi (converted)
Chain of JAK3 (P52333 whole entry): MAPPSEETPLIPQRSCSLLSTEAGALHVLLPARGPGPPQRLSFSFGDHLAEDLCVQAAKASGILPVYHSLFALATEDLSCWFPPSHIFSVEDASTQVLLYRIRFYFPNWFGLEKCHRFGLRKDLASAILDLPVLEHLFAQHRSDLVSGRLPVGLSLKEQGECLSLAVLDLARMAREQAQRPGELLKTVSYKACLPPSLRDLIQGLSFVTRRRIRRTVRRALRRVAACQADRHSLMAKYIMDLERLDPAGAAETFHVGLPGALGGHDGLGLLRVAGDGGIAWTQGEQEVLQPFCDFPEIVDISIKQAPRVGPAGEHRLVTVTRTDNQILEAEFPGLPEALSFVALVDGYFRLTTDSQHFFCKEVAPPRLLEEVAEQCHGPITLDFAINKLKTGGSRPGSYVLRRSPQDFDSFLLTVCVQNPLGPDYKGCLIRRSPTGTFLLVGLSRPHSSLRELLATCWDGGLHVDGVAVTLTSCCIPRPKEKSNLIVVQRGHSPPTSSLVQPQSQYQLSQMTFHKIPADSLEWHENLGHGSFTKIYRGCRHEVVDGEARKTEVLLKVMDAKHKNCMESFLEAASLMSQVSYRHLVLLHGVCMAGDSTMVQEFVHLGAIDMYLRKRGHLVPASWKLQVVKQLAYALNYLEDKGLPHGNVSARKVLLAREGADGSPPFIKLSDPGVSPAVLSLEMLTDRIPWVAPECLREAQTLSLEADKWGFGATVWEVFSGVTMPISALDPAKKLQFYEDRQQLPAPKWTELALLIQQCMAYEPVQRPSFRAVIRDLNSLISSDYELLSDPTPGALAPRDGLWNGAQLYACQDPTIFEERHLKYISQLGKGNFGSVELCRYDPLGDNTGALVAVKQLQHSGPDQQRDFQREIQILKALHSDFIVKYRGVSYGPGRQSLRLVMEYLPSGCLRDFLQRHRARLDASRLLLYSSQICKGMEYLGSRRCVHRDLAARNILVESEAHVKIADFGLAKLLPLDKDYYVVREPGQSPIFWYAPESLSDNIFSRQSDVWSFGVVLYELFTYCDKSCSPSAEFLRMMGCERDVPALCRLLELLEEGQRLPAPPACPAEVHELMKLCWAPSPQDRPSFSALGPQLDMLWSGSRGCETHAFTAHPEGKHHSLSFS
Summary of the method: as §1

[4] = biological target: TYK2 (Homo sapiens (Human), UniProt P29597); test: Biochemical JAK kinase assay (LanthaScreen), Tyk2; settings: read-out: Tyk2 pKi (converted)
Chain of TYK2 (P29597 whole entry): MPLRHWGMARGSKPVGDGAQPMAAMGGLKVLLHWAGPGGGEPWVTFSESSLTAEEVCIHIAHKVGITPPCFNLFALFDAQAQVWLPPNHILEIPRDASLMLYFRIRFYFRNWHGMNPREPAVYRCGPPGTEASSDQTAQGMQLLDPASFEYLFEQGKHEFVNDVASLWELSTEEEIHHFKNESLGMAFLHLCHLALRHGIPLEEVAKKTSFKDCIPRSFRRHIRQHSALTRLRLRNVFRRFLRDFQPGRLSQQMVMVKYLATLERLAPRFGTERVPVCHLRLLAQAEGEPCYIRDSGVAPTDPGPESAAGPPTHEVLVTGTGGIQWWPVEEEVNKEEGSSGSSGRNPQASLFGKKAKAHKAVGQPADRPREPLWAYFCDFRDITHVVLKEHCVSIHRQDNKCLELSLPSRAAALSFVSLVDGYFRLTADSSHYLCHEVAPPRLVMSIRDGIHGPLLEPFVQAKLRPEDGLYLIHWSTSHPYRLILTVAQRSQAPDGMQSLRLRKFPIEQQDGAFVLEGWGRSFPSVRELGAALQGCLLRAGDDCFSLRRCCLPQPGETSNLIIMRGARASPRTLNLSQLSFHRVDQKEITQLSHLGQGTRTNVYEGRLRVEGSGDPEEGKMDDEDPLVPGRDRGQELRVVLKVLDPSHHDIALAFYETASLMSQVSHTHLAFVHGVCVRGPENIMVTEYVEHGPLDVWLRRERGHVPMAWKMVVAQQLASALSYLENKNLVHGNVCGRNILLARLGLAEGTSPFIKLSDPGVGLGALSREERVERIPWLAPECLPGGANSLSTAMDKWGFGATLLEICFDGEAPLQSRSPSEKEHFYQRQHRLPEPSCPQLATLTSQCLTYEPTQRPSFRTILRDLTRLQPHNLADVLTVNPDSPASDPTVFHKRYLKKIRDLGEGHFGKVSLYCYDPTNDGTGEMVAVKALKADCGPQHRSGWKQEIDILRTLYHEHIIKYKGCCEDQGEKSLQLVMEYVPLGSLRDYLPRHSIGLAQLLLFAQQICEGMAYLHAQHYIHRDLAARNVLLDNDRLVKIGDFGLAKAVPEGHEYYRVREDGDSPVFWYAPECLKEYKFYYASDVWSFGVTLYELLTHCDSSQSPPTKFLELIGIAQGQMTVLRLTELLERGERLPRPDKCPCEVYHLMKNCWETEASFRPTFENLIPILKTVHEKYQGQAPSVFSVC
Summary of the method: as §1

[5] = system: IL-13 induced STAT6 phosphorylation in BEAS-2B human lung epithelial cells; test: Cellular JAKI potency assay (BEAS-2B); assay type: cell-based; settings: Homo sapiens, BEAS-2B, BEAS-2B cells, read-out: BEAS2B pIC50 (converted)
Summary of the method: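 AlphaLISA SureFire detection of Tyr641 pSTAT6 in lysates gave IC50s (4-parameter fit, expressed as pIC50). Cells: human BEAS-2B, exposed 1 h at 37 °C to compound dose series at 0.1% DMSO, then 30 min to IL-13 added at 80 ng/mL in HEPES-buffered HBSS with BSA.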

[6] = Pharmacokinetics in plasma and lung in mouse after oral aspiration administration; assay type: in vivo; settings: male CD1 mice; for Lung Tissue AUC(0-24) / AUC(0-t): 0.2 mg/mL, two 25 μL increments; for Lung Tissue:Plasma AUC ratio: lung AUC to plasma AUC; for AUC(0-t): mouse, inhaled or intranasal, 0.01 mg/mouse, plasma, read-out: Plasma AUC(0-24)
Summary of the method: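 Male CD1 mice given 0.2 mg/mL compound in 20% propylene glycol/pH 4 citrate buffer, two 25 μL increments by oral aspiration into the trachea under isoflurane. Plasma and lung homogenate sampled 0.167–24 hr and measured by LC-MS/MS. Non-compartmental analysis gave AUC(0-inf); lung-to-plasma ratio from lung (μg*hr/g) over plasma (μg*hr/mL) AUC.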

Chain of JAK1 (P23458 whole entry): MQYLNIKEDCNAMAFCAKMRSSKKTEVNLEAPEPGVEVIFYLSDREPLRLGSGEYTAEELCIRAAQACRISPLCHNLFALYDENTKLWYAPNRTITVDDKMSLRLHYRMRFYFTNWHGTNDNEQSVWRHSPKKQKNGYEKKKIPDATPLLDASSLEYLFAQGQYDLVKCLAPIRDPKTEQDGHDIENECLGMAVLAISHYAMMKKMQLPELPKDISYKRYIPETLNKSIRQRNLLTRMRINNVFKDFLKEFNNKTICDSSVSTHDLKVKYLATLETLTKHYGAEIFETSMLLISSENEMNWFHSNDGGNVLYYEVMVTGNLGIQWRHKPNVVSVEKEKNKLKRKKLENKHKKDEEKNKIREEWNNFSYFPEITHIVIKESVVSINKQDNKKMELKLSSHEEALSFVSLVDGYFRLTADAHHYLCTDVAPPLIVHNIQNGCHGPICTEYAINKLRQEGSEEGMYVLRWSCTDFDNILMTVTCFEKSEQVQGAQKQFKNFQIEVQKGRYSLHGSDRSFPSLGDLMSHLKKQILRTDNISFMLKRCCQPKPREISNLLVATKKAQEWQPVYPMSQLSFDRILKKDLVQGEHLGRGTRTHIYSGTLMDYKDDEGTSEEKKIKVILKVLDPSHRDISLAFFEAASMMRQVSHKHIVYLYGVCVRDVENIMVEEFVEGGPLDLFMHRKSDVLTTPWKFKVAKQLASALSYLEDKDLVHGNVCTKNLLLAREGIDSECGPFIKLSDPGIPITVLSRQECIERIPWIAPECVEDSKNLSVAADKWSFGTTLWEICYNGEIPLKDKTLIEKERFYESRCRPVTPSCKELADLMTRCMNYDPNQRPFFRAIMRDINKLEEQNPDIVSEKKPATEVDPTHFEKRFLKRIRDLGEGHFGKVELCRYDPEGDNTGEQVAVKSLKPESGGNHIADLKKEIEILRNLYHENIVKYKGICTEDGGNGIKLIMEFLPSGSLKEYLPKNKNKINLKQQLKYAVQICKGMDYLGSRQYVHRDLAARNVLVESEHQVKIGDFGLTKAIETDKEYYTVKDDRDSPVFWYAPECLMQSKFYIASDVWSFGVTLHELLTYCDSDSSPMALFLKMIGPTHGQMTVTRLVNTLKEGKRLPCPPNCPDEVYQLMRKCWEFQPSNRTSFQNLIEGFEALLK

Row | Structure (SMILES) | Ki [1] [nM] | Ki [2] [nM] | Ki [3] [nM] | Ki [4] [nM] | IC50 [5] [nM] | Lung Tissue AUC(0-24) [6] | Lung Tissue:Plasma AUC ratio [6] | AUC(0-t) [6] [ng·h/mL] | JAK2 pKi [2] | JAK1 pKi [1]
1 | CCc1cc(O)ccc1-c1ccc2c(-c3nc(C4=CCN(C5CCC5)CC4)c[nH]3)n[nH]c2c1F [Example 26] | 0.1 to 1 | 0.1 to 1 | 0.1 to 1 | 1 to 10 | 10 to 31.6 | C (C denotes a value between 9 and 50) | E (E denotes a ratio between 30 and 50) | < 500 | – | –
2 | CCc1cc(O)ccc1-c1ccc2c(-c3nc(C4=CCN(C(C)C)C4)c[nH]3)n[nH]c2c1F [Example 32] | 0.1 to 1 | 0.1 to 1 | 0.1 to 1 | 1 to 10 | 3.16 to 10 | C (C denotes a value between 9 and 50) | D (D denotes a ratio between 50 and 100) | < 500 | – | –
3 | CCc1cc(O)ccc1-c1ccc2c(-c3nc(C4=CCCN(CCO)C4)c[nH]3)n[nH]c2c1F [Example 44] | 0.1 to 1 | 0.1 to 1 | 0.1 to 1 | 1 to 10 | 3.16 to 10 | B (B denotes a value between 50 and 100) | D (D denotes a ratio between 50 and 100) | 500 to 1000 | – | –
4 | CCc1cc(O)ccc1-c1ccc2c(-c3nc(C4=CCCN(CCCO)C4)c[nH]3)n[nH]c2c1F [Example 45] | 0.1 to 1 | – | 0.1 to 1 | 1 to 10 | 3.16 to 10 | C (C denotes a value between 9 and 50) | C (C denotes a ratio between 100 and 200) | < 500 | A (A represents a pKi value ≥10 (Ki≤0.1 nM)) | –
5 | CCc1cc(O)ccc1-c1ccc2c(-c3nc(C4=CCN(C(=O)[C@@H](N)C(C)(C)O)C4)c[nH]3)n[nH]c2c1 [Example 170] | 0.1 to 1 | – | 0.1 to 1 | 0.1 to 1 | 10 to 31.6 | B (B denotes a value between 50 and 100) | C (C denotes a ratio between 100 and 200) | < 500 | A (A represents a pKi value ≥10 (Ki≤0.1 nM)) | –
6 | CCc1cc(O)ccc1-c1ccc2c(-c3nc(C4=CCN(C5CCN(C)CC5)CC4)c[nH]3)n[nH]c2c1F [Example 185] | 0.1 to 1 | 0.1 to 1 | 0.1 to 1 | 1 to 10 | 10 to 31.6 | A (For the Lung Tissue AUC(0-24), A denotes a value between 100 and 200) | B (B denotes a ratio between 200 and 300) | 500 to 1000 | – | –
7 | CCc1cc(O)ccc1-c1ccc2c(-c3nc(C4=CCCN(C5CCN(C)CC5)C4)c[nH]3)n[nH]c2c1 [Example 192] | 0.1 to 1 | – | 0.1 to 1 | 1 to 10 | 10 to 31.6 | A (For the Lung Tissue AUC(0-24), A denotes a value between 100 and 200) | A (For the ratio of lung exposure to plasma exposure, A denotes a ratio 300-410) | < 500 | A (A represents a pKi value ≥10 (Ki≤0.1 nM)) | –
8 | CCc1cc(O)ccc1-c1ccc2c(-c3nc(C4=CCN(C5CCN(C)CC5)C4)c[nH]3)n[nH]c2c1F [Example 201] | 0.1 to 1 | – | 0.1 to 1 | 1 to 10 | 3.16 to 10 | A (For the Lung Tissue AUC(0-24), A denotes a value between 100 and 200) | B (B denotes a ratio between 200 and 300) | 500 to 1000 | A (A represents a pKi value ≥10 (Ki≤0.1 nM)) | –
9 | CCc1cc(O)ccc1-c1ccc2c(-c3nc(C4=CCN(C5CN(C)C5)C4)c[nH]3)n[nH]c2c1F [Example 202] | 0.1 to 1 | – | 0.1 to 1 | 1 to 10 | 10 to 31.6 | B (B denotes a value between 50 and 100) | D (D denotes a ratio between 50 and 100) | 500 to 1000 | A (A represents a pKi value ≥10 (Ki≤0.1 nM)) | –
10 | CCc1cc(O)ccc1-c1ccc2c(-c3nc(C4=C(C)CNCC4)c[nH]3)n[nH]c2c1F [Example 227] | 0.1 to 1 | 0.1 to 1 | 1 to 10 | 1 to 10 | 10 to 31.6 | A (For the Lung Tissue AUC(0-24), A denotes a value between 100 and 200) | C (C denotes a ratio between 100 and 200) | 500 to 1000 | – | –
11 | CCc1cc(O)ccc1-c1ccc2c(-c3nc(C4=CC[C@H](C)NC4)c[nH]3)n[nH]c2c1F [Example 234] | – | 0.1 to 1 | 1 to 10 | 1 to 10 | 3.16 to 10 | B (B denotes a value between 50 and 100) | C (C denotes a ratio between 100 and 200) | < 500 | – | A (A represents a pKi value ≥10 (Ki≤0.1 nM))
12 | CCc1cc(O)ccc1-c1ccc2c(-c3nc(C4=CC[C@@H](C)NC4)c[nH]3)n[nH]c2c1F [Example 235] | 0.1 to 1 | – | 0.1 to 1 | 1 to 10 | 10 to 31.6 | C (C denotes a value between 9 and 50) | C (C denotes a ratio between 100 and 200) | < 500 | A (A represents a pKi value ≥10 (Ki≤0.1 nM)) | –
13 | CCc1cc(O)ccc1-c1ccc2c(-c3nc(C4=C[C@@H](COC)NC4)c[nH]3)n[nH]c2c1F [Example 246] | 0.1 to 1 | 0.1 to 1 | 1 to 10 | 10 to 100 | 10 to 31.6 | C (C denotes a value between 9 and 50) | D (D denotes a ratio between 50 and 100) | < 500 | – | –
